Legend:
velvetleaf = assay: Test B pre/postemergence velvetleaf; type: in vivo, Abutilon theophrasti
How it was run: (§1)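 Test chemicals in a non-phytotoxic solvent mixture with surfactant were sprayed preemergence onto planted seeds and postemergence onto plants 2 to 18 cm tall (1- to 4-leaf stage). After twelve to sixteen days in a greenhouse, injury was visually rated against untreated controls from 0 (no effect) to 10 (complete control).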

wild oat = assay: Test B pre/postemergence wild oat; type: in vivo, Avena fatua
How it was run: as §1

bamyardgrass = assay: Test B flood test barnyardgrass; type: in vivo, Echinochloa crus-galli
How it was run: (§2)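 Flood test on plants grown to the 2-leaf stage; treated plants kept in greenhouse twelve to sixteen days, then visually rated against controls on a 0 (no effect) to 10 (complete control) scale.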

purple nutsedge = assay: Test B pre/postemergence purple nutsedge; type: in vivo, Cyperus rotundus; conditions: Postemergence
How it was run: as §1

cocklebur = assay: Test B pre/postemergence cocklebur; type: in vivo, Xanthium strumarium
How it was run: as §1

pigweed = assay: Test B pre/postemergence pigweed; type: in vivo, Amaranthus retroflexus
How it was run: as §1

morningglory = assay: Test B pre/postemergence morningglory; type: in vivo, Ipomoea hederacea
How it was run: as §1

blackgrass = assay: Test B pre/postemergence blackgrass; type: in vivo, Alopecurus myosuroides
How it was run: as §1

rape = assay: Test B pre/postemergence rape; type: in vivo, Brassica napus
How it was run: as §1

surinam grass = assay: Test B pre/postemergence surinam grass; type: in vivo, Brachiaria decumbens
How it was run: as §1

giant foxtail = assay: Test B pre/postemergence giant foxtail; type: in vivo, Setaria faberii
How it was run: as §1

sugar beet = assay: Test B pre/postemergence sugar beet; type: in vivo, Beta vulgaris
How it was run: as §1

corn = assay: Test B pre/postemergence corn; type: in vivo, Zea mays
How it was run: as §1

crabgrass = assay: Test B pre/postemergence crabgrass; type: in vivo, Digitaria sanguinalis
How it was run: as §1

soybean = assay: Test B pre/postemergence soybean; type: in vivo, Glycine max
How it was run: as §1

smallflower flatsedge = assay: Test B flood test smallflower flatsedge; type: in vivo, Cyperus difformis
How it was run: as §2

[1] = Postemergence, Rate 250 g/ha, scale 0 to 10, 0 no effect, 10 complete control
[2] = Postemergence, Rate 1000 g/ha, scale 0 to 10 (0 no effect, 10 complete control)
[3] = Preemergence, Rate 125 g/ha, scale 0 to 10 (0 no effect, 10 complete control)
[4] = Preemergence, Rate 250 g/ha, scale of 0 to 10 where 0 is no effect and 10 is complete control
[5] = Preemergence, Rate 500 g/ha, scale 0 (no effect) to 10 (complete control)
[6] = Rate 125 g/ha, Postemergence, scale 0 to 10, 0 no effect, 10 complete control
[7] = Rate 1000 g/ha, Preemergence, scale 0 to 10 (0 no effect, 10 complete control)
[8] = Rate 125 g/ha, Postemergence section (flood test species), scale 0 to 10, 0 no effect, 10 complete control
[9] = flood test, listed under Postemergence, Rate 250 g/ha, scale 0 to 10, 0 no effect, 10 complete control
[10] = Rate 500 g/ha, Postemergence, 0 to 10 scale (0 no effect, 10 complete control)

CCN(CC)C(=O)n1oc(=O)n(-c2c(C)cccc2C)c1=O [Compound 2]
Velvetleaf plant response rating (velvetleaf; [1]): 0
Velvetleaf plant response rating (velvetleaf; [2]): 0
Plant response rating, Velvetleaf (velvetleaf; [3]): 0
Plant response rating, Velvetleaf (velvetleaf; [4]): 0
Velvetleaf plant response rating (velvetleaf; [5]): 0
Velvetleaf plant response rating (velvetleaf; [6]): 0
Plant response rating, Velvetleaf (velvetleaf; [7]): 2
Wild oats plant response rating (wild oat; [1]): 0
Wild oats plant response rating (wild oat; [2]): 0
Plant response rating, Wild oats (wild oat; [3]): 0
Plant response rating, Wild oats (wild oat; [4]): 0
Wild oats plant response rating (wild oat; [5]): 0
Wild oats plant response rating (wild oat; [6]): 0
Plant response rating, Wild oats (wild oat; [7]): 4
Barnyardgrass plant response rating (bamyardgrass; [2]): 0
Barnyardgrass plant response rating (bamyardgrass; [8]): 0
Barnyardgrass plant response rating (bamyardgrass; Rate 500 g/ha, Postemergence section of Table B, 0 to 10 scale (0 no effect, 10 complete control)): 0
Barnyardgrass plant response rating (bamyardgrass; [9]): 0
Nutsedge plant response rating (purple nutsedge; Rate 250 g/ha, scale 0 to 10, 0 no effect, 10 complete control): 0
Nutsedge plant response rating (purple nutsedge; Rate 1000 g/ha, scale 0 to 10 (0 no effect, 10 complete control)): 0
Nutsedge plant response rating (purple nutsedge; Rate 125 g/ha, scale 0 to 10, 0 no effect, 10 complete control): 0
Nutsedge plant response rating (purple nutsedge; Rate 500 g/ha, 0 to 10 scale (0 no effect, 10 complete control)): 0
Cocklebur plant response rating (cocklebur; [1]): 0
Cocklebur plant response rating (cocklebur; [2]): 0
Plant response rating, Cocklebur (cocklebur; [3]): 0
Plant response rating, Cocklebur (cocklebur; [4]): 0
Cocklebur plant response rating (cocklebur; [5]): 0
Cocklebur plant response rating (cocklebur; [6]): 0
Cocklebur plant response rating (cocklebur; [10]): 0
Redroot pigweed plant response rating (pigweed; [1]): 0
Redroot pigweed plant response rating (pigweed; [2]): 0
Plant response rating, Redroot pigweed (pigweed; [3]): 0
Plant response rating, Redroot pigweed (pigweed; [4]): 0
Redroot pigweed plant response rating (pigweed; [5]): 0
Redroot pigweed plant response rating (pigweed; [6]): 0
Redroot pigweed plant response rating (pigweed; [10]): 0
Plant response rating, Redroot pigweed (pigweed; [7]): 0
Morningglory plant response rating (morningglory; [1]): 0
Morningglory plant response rating (morningglory; [2]): 5
Plant response rating, Morningglory (morningglory; [3]): 0
Plant response rating, Morningglory (morningglory; [4]): 0
Morningglory plant response rating (morningglory; [5]): 0
Morningglory plant response rating (morningglory; [6]): 0
Morningglory plant response rating (morningglory; [10]): 0
Plant response rating, Morningglory (morningglory; [7]): 0
Blackgrass plant response rating (blackgrass; [1]): 4
Blackgrass plant response rating (blackgrass; [2]): 9
Plant response rating, Blackgrass (blackgrass; [3]): 0
Plant response rating, Blackgrass (blackgrass; [4]): 0
Blackgrass plant response rating (blackgrass; [5]): 0
Blackgrass plant response rating (blackgrass; [6]): 0
Blackgrass plant response rating (blackgrass; [10]): 8
Plant response rating, Blackgrass (blackgrass; [7]): 7
Rape plant response rating (rape; [1]): 0
Rape plant response rating (rape; [2]): 0
Plant response rating, Rape (rape; [3]): 0
Plant response rating, Rape (rape; [4]): 0
Rape plant response rating (rape; [5]): 0
Rape plant response rating (rape; [6]): 0
Rape plant response rating (rape; [10]): 0
Plant response rating, Rape (rape; [7]): 0
B. signalgrass plant response rating (surinam grass; [1]): 0
B. signalgrass plant response rating (surinam grass; [2]): 2
Plant response rating, B. signalgrass (surinam grass; [3]): 0
Plant response rating, B. signalgrass (surinam grass; [4]): 0
B. signalgrass plant response rating (surinam grass; [5]): 0
B. signalgrass plant response rating (surinam grass; [6]): 0
B. signalgrass plant response rating (surinam grass; [10]): 0
Plant response rating, B. signalgrass (surinam grass; [7]): 6
Giant foxtail plant response rating (giant foxtail; [1]): 7
Giant foxtail plant response rating (giant foxtail; [2]): 8
Plant response rating, Giant foxtail (giant foxtail; [3]): 6
Plant response rating, Giant foxtail (giant foxtail; [4]): 7
Giant foxtail plant response rating (giant foxtail; [5]): 7
Giant foxtail plant response rating (giant foxtail; [6]): 0
Giant foxtail plant response rating (giant foxtail; [10]): 7
Plant response rating, Giant foxtail (giant foxtail; [7]): 10
Sugarbeets plant response rating (sugar beet; [1]): 0
Sugarbeets plant response rating (sugar beet; [2]): 0
Plant response rating, Sugarbeets (sugar beet; [3]): 0
Plant response rating, Sugarbeets (sugar beet; [4]): 0
Sugarbeets plant response rating (sugar beet; [5]): 0
Sugarbeets plant response rating (sugar beet; [6]): 0
Plant response rating, Sugarbeets (sugar beet; [7]): 0
Corn plant response rating (corn; [1]): 3
Corn plant response rating (corn; [2]): 8
Plant response rating, Corn (corn; [3]): 4
Plant response rating, Corn (corn; [4]): 6
Corn plant response rating (corn; [5]): 7
Corn plant response rating (corn; [6]): 0
Corn plant response rating (corn; [10]): 6
Plant response rating, Corn (corn; [7]): 8
Crabgrass plant response rating (crabgrass; [1]): 0
Crabgrass plant response rating (crabgrass; [2]): 4
Plant response rating, Crabgrass (crabgrass; [3]): 0
Plant response rating, Crabgrass (crabgrass; [4]): 0
Crabgrass plant response rating (crabgrass; [5]): 0
Crabgrass plant response rating (crabgrass; [6]): 0
Crabgrass plant response rating (crabgrass; [10]): 0
Plant response rating, Crabgrass (crabgrass; [7]): 6
Soybean plant response rating (soybean; [1]): 1
Soybean plant response rating (soybean; [2]): 4
Plant response rating, Soybean (soybean; [3]): 0
Plant response rating, Soybean (soybean; [4]): 0
Soybean plant response rating (soybean; [5]): 0
Soybean plant response rating (soybean; [6]): 0
Plant response rating, Soybean (soybean; [7]): 3
S. Flatsedge plant response rating (smallflower flatsedge; [2]): 0
S. Flatsedge plant response rating (smallflower flatsedge; [8]): 0
S. Flatsedge plant response rating (smallflower flatsedge; [9]): 0
